# Patent US20040091479A1, “T-cell epitope of the papillomavirus l1 and e7 protein and use thereof in diagnostics and therapy” (priority 2000, published 2004)
# Assays:
# [1] = tested on: T cell line generated with HeLa CD80/HLA-A2 transfectants (H7.1-A2); test: IFN-γ ELISpot of H7.1-A2-specific T cell line against peptide-loaded autologous PBMC; format: cell-based, human; settings: H7.1-A2-induced T cell line, FIG. 17 top
# [2] = tested on: autologous peptide-loaded BLCL; test: Cytotoxicity test (chromium release assay) of HPV18 E786-94-specific T cells; format: cell-based, human; settings: effector to target ratio of 30:1, FIG. 17 bottom
# Method: The predicted peptides were synthesized using standard methods (F moc method). […] For this, 1×10^5 PBMC derived from healthy, HLA-A2-positive donors were sown, in 100 μl of medium (RPMI 1640, 10% heat-inactivated AB plasma), in each well of a 96-well plate. 20 μg of peptide/ml were added to the culture medium. The cells were incubated at 37° C. and restimulated once per week with irradiated peptide-loaded autologous PBMC. The stimulator PBMC were incubated for 4 hours in medium containing 20 μg of peptide/ml. After the irradiation, they were diluted down to 1×10^4/100 μl with medium and added to the peptide-stimulated PBMC. For this, half the medium was aspirated from each well and 100 μl of the stimulator PBMC suspension were added. 10 U of IL-2/ml and 10 U of IL-7/ml were added from the 3rd stimulation onwards. From the 5th stimulation onwards, restimulation was carried out in the same manner using peptide-loaded autologous B lymphoblast cell lines (BLCL).
# The cytotoxicity of HPV18 E786-94-specific T cells was determined in a chromium release assay. Autologous BLCL were used as the target cells. In each case, 5×10^5 cells were taken up in 100 μl of medium (RPMI 1640, 10% FCS) and treated with 20 μl of ^51chromium (NEN). For loading the BLCL with peptide, 50 μg of the corresponding peptide were added/ml. After that, the cells were incubated at room temperature for 2 hours while being carefully resuspended every 20-30 min. The cells were then washed 3 times with 5 ml of medium. For the sedimenting, the cells were in each case centrifuged at 1500 rpm for 5 min and then carefully resuspended. […]
# The assay samples were incubated for 4 hours at 37° C., 98% atmospheric humidity and 5% CO2. […] On the following day, 150 μl of Microscint 40 scintillation fluid (Canberra-Packard, Deieich) were added and the numbers of distintegrations per minute in the individual assay samples were measured in the scintillation counter (Topcount, Canberra-Packard, Dreieich).
# The specific lysis was calculated using the following formula: […]
# [3] = tested on: T cell lines directed against HPV18 E7; test: ELISpot of T cell lines induced with HPV18 E7-loaded dendritic cells; format: cell-based, human; settings: E7 protein-induced and E7 peptide pool-induced T cell lines; epitope-loaded DC; FIG. 18 top
# Method: 1×10^4 stimulator cells (K-A2 cells, that is K-562 cells (ATCC CCL-243) were transfected with an HLA A2 expression vector, PBMC or dendritic cells) were sown, in 60 μl of medium (RPMI 1640, 0.4% human albumin), in one well of a 96-well round-bottomed cell culture plate and loaded overnight with 50 μg of peptide/ml. On the following day, 5×10^4 T cells, in 60 μl of medium (containing 10 U each of IL-2 and IL-7/ml), were added to each well and the plate was incubated for 4 hours. A Millipore nitrocellulose HA plate was coated overnight, at 4° C., with the anti-human IFN-γ monoclonal antibody 1-Dlk (10 μg/ml in PBS, 60 μl/well, Hölzel Diagnostika, Cologne). On the following day, the plate was washed 3 times for in each case 5 min with 150 μl of sterile PBS per well and then blocked with medium for 1 hour at 37° C. The blocking medium was removed and the cells were transferred from the round-bottomed cell culture plate to the filter plate and then incubated for a further 20 to 22 hours. After that, the cells and the medium were removed and the filter plate was washed 6 times for 2 min with PBS/Tween 20 (0.05%). The antibody Ab-7-B6-1-biotin was then added (2 μg/ml in PBS/BSA, 60 μl/well, Hölzel Diagnostika) and the plate was incubated at 4° C. overnight. […] The spots were counted using a ZEISS-VISION (Halbergmoos) ELISpot readout system. […]
# [4] = tested on: TIL from an HPV18- and HLA-A2-positive patient; test: ELISpot of tumor-infiltrating lymphocytes with peptide-loaded K-A2 cells; format: cell-based, human; settings: peptide-loaded K-A2 stimulators; FIG. 18 bottom
# [5] = tested on: human T cells; test: Summary of examples 3 to 18: epitopes recognized by human T cells; format: cell-based; settings: Table 4, HPV18 peptides, species human; MHC restriction
sequence,measurement,setting,value
"FQQLFLNTL [HPV18 E786-94, HPV18 E7 86-94]",IFN-γ ELISpot reaction,[1],specific reaction
same,specific lysis,[2],approx. 20%
same,epitope-specific T cells in ELISpot assay,[3],detected in both T cell lines
same,ELISpot reaction of TIL populations,[4],marked reaction
same,Haplotype,[5],HLA-A2
